From patent publication US20260028326A1, “COMPOUND BASED ON ISOINDOLINE-SUBSTITUTED GLUTARIMIDE BACKBONE AND USE THEREOF” (GLUETACS THERAPEUTICS (SHANGHAI) CO., LTD., priority 2022, published 2026)

How the values were obtained:
[1] = target: IKZF1 protein (Homo sapiens (Human), UniProt Q13422+Q96SW2); experiment: Western-blot assay of substrate protein degradation in hPBMC, IKZF1; assay type: cell-based; conditions: hPBMC cells, compound 500 nM, 24 hours, Western blot
Description: (§1) After treating the cells with the compounds for 24 hours, the cells were collected and lysed using RIPA protein lysate containing phosphatase inhibitors. The lysate was then placed on ice for 30-60 minutes and centrifuged. The supernatant was aspirated as the extracted total cell protein. The protein concentration of the supernatant was determined using the conventional BCA (Bicinchoninic Acid) assay. The supernatant was then mixed with 4×SDS sample loading buffer, denatured at 95° C. for 5 minutes, and then subjected to SDS-PAGE electrophoresis on a polyacrylamide gel, followed by transfer to a nitrocellulose membrane (NC membrane). The membrane was blocked with blocking buffer at room temperature for 1-2 hours, and then antibody incubation and detection were carried out according to the antibody instructions provided by Cell Signaling Technology.
(§2) Half-Maximal Degradation Concentration value (the drug concentration required for degrading proteins by 50%, abbreviated as DC50) reads method: comparing the gray values of the Western blotting bands for the drug treatment with the gray values of the Western blotting band for the DMSO control, and reading the drug concentration range corresponding to the gray value of the Western blotting bands for the drug treatment which is equal to half of the gray value of the Western blotting band for the DMSO control.
(§3) DC50 value could also be calculated as follows: using software ImageJ to quantify the gray values of the Western blotting bands for the drug treatment, fitting the relationship curve between drug concentrations and gray values, and from the fitted curve, calculating the drug concentration corresponding to half of the gray value of the Western blotting band for the DMSO control.

[2] = target: GSPT1 protein (Homo sapiens (Human), UniProt P15170+Q96SW2); experiment: Western-blot assay of substrate protein degradation in hPBMC, GSPT1; assay type: cell-based; conditions: hPBMC cells, compound 500 nM, 24 hours, Western blot
Description: as §1, §2, §3

[3] = target: human Cereblon WT GST-tagged protein (Homo sapiens (Human), UniProt Q96SW2); experiment: CRBN-binding affinity, HTRF (CEREBLON BINDING kit)
Summary of the method: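 HTRF competition readout: compounds compete with a thalidomide-Re conjugate for GST-tagged wild-type human CRBN detected via Eu-labelled anti-GST antibody. Inhibition rate derived relative to protein-free blank wells.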

[4] = target: IKZF3 protein (Homo sapiens (Human), UniProt Q96SW2+Q9UKT9); experiment: Western-blot assay of substrate protein degradation in hPBMC, IKZF3; assay type: cell-based; conditions: hPBMC cells, compound 500 nM, 24 hours, Western blot
Description: as §1, §2, §3

Chain of human Cereblon WT GST-tagged protein (Q96SW2 whole entry): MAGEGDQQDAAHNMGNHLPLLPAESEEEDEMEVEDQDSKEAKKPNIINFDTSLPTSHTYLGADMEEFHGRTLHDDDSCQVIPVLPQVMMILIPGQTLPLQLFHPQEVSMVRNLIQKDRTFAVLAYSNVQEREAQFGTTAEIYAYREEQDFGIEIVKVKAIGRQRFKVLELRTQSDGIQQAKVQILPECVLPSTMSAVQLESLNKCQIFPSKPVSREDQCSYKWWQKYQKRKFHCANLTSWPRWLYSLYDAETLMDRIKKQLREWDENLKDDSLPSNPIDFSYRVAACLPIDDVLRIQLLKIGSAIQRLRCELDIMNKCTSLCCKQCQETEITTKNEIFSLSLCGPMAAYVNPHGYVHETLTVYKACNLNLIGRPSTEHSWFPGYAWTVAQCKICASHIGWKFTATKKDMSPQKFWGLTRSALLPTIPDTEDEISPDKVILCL
Chain of GSPT1 protein (P15170 whole entry): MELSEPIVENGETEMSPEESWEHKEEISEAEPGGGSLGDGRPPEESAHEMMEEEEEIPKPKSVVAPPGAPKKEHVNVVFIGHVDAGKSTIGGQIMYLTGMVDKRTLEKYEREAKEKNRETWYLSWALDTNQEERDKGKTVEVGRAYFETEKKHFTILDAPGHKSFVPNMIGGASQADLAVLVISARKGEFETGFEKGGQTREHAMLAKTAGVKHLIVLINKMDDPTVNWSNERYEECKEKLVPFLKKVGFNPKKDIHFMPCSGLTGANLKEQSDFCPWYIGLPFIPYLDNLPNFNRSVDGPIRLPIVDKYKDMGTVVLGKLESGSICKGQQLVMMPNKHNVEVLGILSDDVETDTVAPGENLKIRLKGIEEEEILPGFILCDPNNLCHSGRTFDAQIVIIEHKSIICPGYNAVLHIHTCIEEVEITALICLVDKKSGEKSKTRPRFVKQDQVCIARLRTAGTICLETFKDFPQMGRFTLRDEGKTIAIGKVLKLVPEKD
Chain of GSPT1 protein (Q96SW2 whole entry): as the sequence (Q96SW2 whole entry) above
Chain of GSPT1 protein (Q16531 whole entry partner): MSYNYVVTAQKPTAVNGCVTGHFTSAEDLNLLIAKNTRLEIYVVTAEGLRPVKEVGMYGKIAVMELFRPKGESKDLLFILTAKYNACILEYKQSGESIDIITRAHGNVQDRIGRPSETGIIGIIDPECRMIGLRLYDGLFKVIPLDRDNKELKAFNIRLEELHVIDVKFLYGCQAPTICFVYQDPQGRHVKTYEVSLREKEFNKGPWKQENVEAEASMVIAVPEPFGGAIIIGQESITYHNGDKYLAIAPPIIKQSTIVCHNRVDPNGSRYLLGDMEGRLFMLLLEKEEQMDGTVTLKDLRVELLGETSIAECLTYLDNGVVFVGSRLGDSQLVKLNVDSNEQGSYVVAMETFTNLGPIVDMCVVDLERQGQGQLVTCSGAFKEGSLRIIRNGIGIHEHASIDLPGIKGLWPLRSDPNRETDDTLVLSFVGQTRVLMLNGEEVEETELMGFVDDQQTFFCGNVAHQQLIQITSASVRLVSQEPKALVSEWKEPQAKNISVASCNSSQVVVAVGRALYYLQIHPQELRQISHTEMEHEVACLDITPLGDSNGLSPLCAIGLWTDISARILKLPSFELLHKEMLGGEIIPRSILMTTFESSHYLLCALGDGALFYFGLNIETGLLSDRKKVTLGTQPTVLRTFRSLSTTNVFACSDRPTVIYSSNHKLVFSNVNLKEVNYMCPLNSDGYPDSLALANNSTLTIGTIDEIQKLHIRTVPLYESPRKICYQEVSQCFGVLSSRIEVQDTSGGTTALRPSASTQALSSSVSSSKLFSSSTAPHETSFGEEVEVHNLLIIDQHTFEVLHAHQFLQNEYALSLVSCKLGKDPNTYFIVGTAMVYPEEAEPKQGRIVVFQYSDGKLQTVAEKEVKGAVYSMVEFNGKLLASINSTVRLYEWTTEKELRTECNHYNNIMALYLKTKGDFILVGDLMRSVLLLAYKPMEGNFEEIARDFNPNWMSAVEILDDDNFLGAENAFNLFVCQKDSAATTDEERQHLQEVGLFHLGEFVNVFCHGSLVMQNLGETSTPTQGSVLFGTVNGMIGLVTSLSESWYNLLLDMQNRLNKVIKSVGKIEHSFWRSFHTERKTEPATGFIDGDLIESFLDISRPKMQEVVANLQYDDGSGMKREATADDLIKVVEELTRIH
Chain of IKZF3 protein (Q9UKT9 whole entry): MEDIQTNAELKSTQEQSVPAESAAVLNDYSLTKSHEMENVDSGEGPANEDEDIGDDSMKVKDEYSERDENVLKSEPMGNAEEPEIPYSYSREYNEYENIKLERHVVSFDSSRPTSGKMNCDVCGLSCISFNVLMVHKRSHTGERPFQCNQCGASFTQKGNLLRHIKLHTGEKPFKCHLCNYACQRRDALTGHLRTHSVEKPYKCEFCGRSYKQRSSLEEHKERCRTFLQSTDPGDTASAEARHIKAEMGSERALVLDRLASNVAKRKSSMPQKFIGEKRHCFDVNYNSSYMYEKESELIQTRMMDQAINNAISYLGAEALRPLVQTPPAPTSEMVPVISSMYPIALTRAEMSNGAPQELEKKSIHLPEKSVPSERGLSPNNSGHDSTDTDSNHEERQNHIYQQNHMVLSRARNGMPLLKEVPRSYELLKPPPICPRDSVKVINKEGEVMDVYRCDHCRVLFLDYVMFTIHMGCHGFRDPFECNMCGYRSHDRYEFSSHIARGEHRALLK
Chain of IKZF3 protein (Q96SW2 whole entry): as the sequence (Q96SW2 whole entry) above
Chain of IKZF3 protein (Q16531 whole entry partner): as the sequence (Q16531 whole entry partner) above
Chain of IKZF1 protein (Q13422 whole entry): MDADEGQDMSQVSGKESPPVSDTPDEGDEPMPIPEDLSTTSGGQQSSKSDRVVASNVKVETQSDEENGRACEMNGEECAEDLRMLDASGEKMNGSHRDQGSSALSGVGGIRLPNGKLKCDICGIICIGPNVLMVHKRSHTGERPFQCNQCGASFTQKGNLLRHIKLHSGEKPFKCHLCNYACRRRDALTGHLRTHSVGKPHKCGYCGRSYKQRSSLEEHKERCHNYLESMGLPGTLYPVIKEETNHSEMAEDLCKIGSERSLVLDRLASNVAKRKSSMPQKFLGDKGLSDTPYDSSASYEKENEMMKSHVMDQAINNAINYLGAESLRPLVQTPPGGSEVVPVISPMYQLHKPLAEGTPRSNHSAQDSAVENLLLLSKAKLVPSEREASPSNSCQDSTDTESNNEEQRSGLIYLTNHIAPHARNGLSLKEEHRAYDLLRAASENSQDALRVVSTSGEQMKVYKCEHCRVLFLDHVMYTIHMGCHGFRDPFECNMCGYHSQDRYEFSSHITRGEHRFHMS
Chain of IKZF1 protein (Q96SW2 whole entry): as the sequence (Q96SW2 whole entry) above
Chain of IKZF1 protein (Q16531 whole entry partner): as the sequence (Q16531 whole entry partner) above

SMILES | residual substrate protein level, IKZF1 [1] | residual substrate protein level, GSPT1 [2] | IC50 [3] [nM] | residual substrate protein level, IKZF3 [4]
CC1(C)CCC(C(=O)N2CCN(Cc3ccc4c(c3)CN(C3CCC(=O)NC3=O)C4=O)C(C(F)(F)F)C2)=C(c2ccc(Cl)cc2)C1 (stereo not shown) [GT-05845, 3-(5-((4-(4′-chloro-5,5-dimethyl-3,4,5,6-tetrahydro-[1,1′-biphenyl]-2-carbonyl)-2-(trifluoromethyl)piperazin-1-yl)methyl)-1-oxoisoindolin-2-yl)piperidine-2,6-dione] | B (B represents a residual substrate protein level of >50%) | B (B represents a residual substrate protein level of >50%) | 760 | A (A represents a residual substrate protein level of <50%)
O=C1CCC(N2Cc3cc(C(=O)N4CCN(Cc5ccccc5-c5ccc(Cl)cc5)CC4)ccc3C2=O)C(=O)N1 (stereo not shown) [GT-05455, 3-(5-(4-((4′-chloro-[1,1′-biphenyl]-2-yl)methyl)piperazine-1-carbonyl)-1-oxoisoindolin-2-yl)piperidine-2,6-dione] | B (B represents a residual substrate protein level of >50%) | A (A represents a residual substrate protein level of <50%) | 1070 | B (B represents a residual substrate protein level of >50%)
O=C1CCC(N2Cc3cc(CN4CCN(Cc5ccncc5-c5ccc(Cl)cc5)CC4)ccc3C2=O)C(=O)N1 (stereo not shown) [GT-04275, 3-(5-((4-((3-(4-chlorophenyl)pyridin-4-yl)methyl)piperazin-1-yl)methyl)-1-oxoisoindolin-2-yl)piperidine-2,6-dione] | A (A represents a residual substrate protein level of <50%) | A (A represents a residual substrate protein level of <50%) | 460 | A (A represents a residual substrate protein level of <50%)
CC1(C)CCC(CN2CC3CC(C2)N3Cc2ccc3c(c2F)CN(C2CCC(=O)NC2=O)C3=O)=C(c2ccc(Cl)cc2)C1 (stereo not shown) [GT-03493, 3-(5-((3-((4′-chloro-5,5-dimethyl-3,4,5,6-tetrahydro-[1,1′-biphenyl]-2-yl)methyl)-3,6-diazabicyclo[3.1.1]heptan-6-yl)methyl)-4-fluoro-1-oxoisoindolin-2-yl)piperidine-2,6-dione] | A (A represents a residual substrate protein level of <50%) | A (A represents a residual substrate protein level of <50%) | 750 | A (A represents a residual substrate protein level of <50%)
CC1(C)CCC(CN2CC3CCC2CN3C(=O)c2ccc3c(c2)C(=O)N(C2CCC(=O)NC2=O)C3=O)=C(c2ccc(Cl)cc2)C1 (stereo not shown) [GT-05414, 5-(5-((4′-chloro-5,5-dimethyl-3,4,5,6-tetrahydro-[1,1′-biphenyl]-2-yl)methyl)-2,5-diazabicyclo[2.2.2]octane-2-carbonyl)-2-(2,6-dioxopiperidin-3-yl)isoindoline-1,3-dione] | B (B represents a residual substrate protein level of >50%) | B (B represents a residual substrate protein level of >50%) |  | A (A represents a residual substrate protein level of <50%)
O=C1CCC(N2C(=O)c3ccc(CN4CCN(Cc5cccc(-c6ccc(Cl)cc6)c5)CC4)cc3C2=O)C(=O)N1 (stereo not shown) [GT-05630, 5-((4-((4′-chloro-[1,1′-biphenyl]-3-yl)methyl)piperazin-1-yl)methyl)-2-(2,6-dioxopiperidin-3-yl)isoindoline-1,3-dione] | B (B represents a residual substrate protein level of >50%) | B (B represents a residual substrate protein level of >50%) |  | A (A represents a residual substrate protein level of <50%)
CC1(C)CCC(CN2CC3CC2CN3Cc2ccc3c(c2)C(=O)N(C2CCC(=O)NC2=O)C3=O)=C(c2ccc(Cl)cc2)C1 (stereo not shown) [GT-05533, 5-((5-((4′-chloro-5,5-dimethyl-3,4,5,6-tetrahydro-[1,1′-biphenyl]-2-yl)methyl)-2,5-diazabicyclo[2.2.1]heptan-2-yl)methyl)-2-(2,6-dioxopiperidin-3-yl)isoindoline-1,3-dione] | A (A represents a residual substrate protein level of <50%) | A (A represents a residual substrate protein level of <50%) |  | A (A represents a residual substrate protein level of <50%)
O=C1CCC(N2C(=O)c3ccc(CN4CCN(CC5=C(c6ccc(F)cc6)CCCC5)CC4)cc3C2=O)C(=O)N1 (stereo not shown) [GT-05464, 2-(2,6-dioxopiperidin-3-yl)-5-((4-((4′-fluoro-3,4,5,6-tetrahydro-[1,1′-biphenyl]-2-yl)methyl)piperazin-1-yl)methyl)isoindoline-1,3-dione] | B (B represents a residual substrate protein level of >50%) | B (B represents a residual substrate protein level of >50%) |  | A (A represents a residual substrate protein level of <50%)
O=C1CCC(N2C(=O)c3ccc(C(=O)N4CCN(Cc5ccc(-c6ccc(Cl)cc6)cc5)CC4)cc3C2=O)C(=O)N1 (stereo not shown) [GT-05600, 5-(4-((4′-chloro-[1,1′-biphenyl]-4-yl)methyl)piperazine-1-carbonyl)-2-(2,6-dioxopiperidin-3-yl)isoindoline-1,3-dione] | B (B represents a residual substrate protein level of >50%) | A (A represents a residual substrate protein level of <50%) |  | B (B represents a residual substrate protein level of >50%)
CC1(C)CCC(CN2CC3(C2)CN(Cc2ccc4c(c2)C(=O)N(C2CCC(=O)NC2=O)C4=O)C3)=C(c2ccc(Cl)cc2)C1 (stereo not shown) [GT-05675, 5-((6-((4′-chloro-5,5-dimethyl-3,4,5,6-tetrahydro-[1,1′-biphenyl]-2-yl)methyl)-2,6-diazaspiro[3.3]heptan-2-yl)methyl)-2-(2,6-dioxopiperidin-3-yl)isoindoline-1,3-dione] | B (B represents a residual substrate protein level of >50%) | B (B represents a residual substrate protein level of >50%) |  | B (B represents a residual substrate protein level of >50%)
CC1(C)CCC(CN2CC3CCC(C2)N3c2ccc3c(c2)CN(C2CCC(=O)NC2=O)C3=O)=C(c2ccc(Cl)cc2)C1 (stereo not shown) [GT-05430, 3-(5-(3-((4′-chloro-5,5-dimethyl-3,4,5,6-tetrahydro-[1,1′-biphenyl]-2-yl)methyl)-3,8-diazabicyclo[3.2.1]octan-8-yl)-1-oxoisoindolin-2-yl)piperidine-2,6-dione] | B (B represents a residual substrate protein level of >50%) | A (A represents a residual substrate protein level of <50%) |  | B (B represents a residual substrate protein level of >50%)
CC1(C)CCC(CN2CCN(Cc3ccc4c(c3)C(=O)N(C3CCC(=O)NC3=O)C4=O)C(C(F)(F)F)C2)=C(c2ccc(Cl)cc2)C1 (stereo not shown) [GT-06103, 5-((4-((4′-chloro-5,5-dimethyl-3,4,5,6-tetrahydro-[1,1′-biphenyl]-2-yl)methyl)-2-(trifluoromethyl)piperazin-1-yl)methyl)-2-(2,6-dioxopiperidin-3-yl)isoindoline-1,3-dione] | B (B represents a residual substrate protein level of >50%) | A (A represents a residual substrate protein level of <50%) |  | B (B represents a residual substrate protein level of >50%)
CC1(C)CCC(CN2CC3CCC(C2)N3Cc2ccc3c(c2)C(=O)N(C2CCC(=O)NC2=O)C3=O)=C(c2ccc(Cl)cc2)C1 (stereo not shown) [GT-04719, 5-((3-((4′-chloro-5,5-dimethyl-3,4,5,6-tetrahydro-[1,1′-biphenyl]-2-yl)methyl)-3,8-diazabicyclo[3.2.1]octan-8-yl)methyl)-2-(2,6-dioxopiperidin-3-yl)isoindoline-1,3-dione] | B (B represents a residual substrate protein level of >50%) | A (A represents a residual substrate protein level of <50%) |  | B (B represents a residual substrate protein level of >50%)
